Experimental data reported in patent publication US20130237478A1, “COMPOSITIONS AND METHODS FOR TREATMENT OF PERIPHERAL VASCULAR DISEASE” (TARIX PHARMACEUTICALS LTD., priority 2012, published 2013).
Positions of bridges follow the written chain, without caps; N, C: chain ends. No end group written: not given here.

Assays:
hind limb ischemia [1] = experiment: Capillary density in muscle sections, mouse hind limb ischemia model; assay type: in vivo, Balb/c mice; settings: Example 2, 49 days after treatment beginning
Description: The model used in this example is the same as for Example 1. Briefly, the hind limb ischemia model in mice used in this example involves two ligations of the proximal end of the femoral artery and its dissection between the two ligatures. The surgery causes obstruction of the blood flow and subsequently leads to severe ischemic damage (Goto, et al.; Kang, et al.). In this experiment, healthy adult female Balb/c mice were used. Hind limb ischemia was induced in mice using protocols previously described. Briefly, Balb/c female mice were maintained on a standard diet with water available ad libitum. Mice were anesthetized and an incision was made in the skin in the inguinal area. The femoral artery was ligated twice with 6-0 silk thread and transected between the ligatures after this the wound was closed with 4-0 silk thread and the mouse was allowed to recover.
(§1) An Angiotensin (1-7) polypeptide composition (PanCyte) and vehicle control (DPBS) were supplied as ready to use solutions and were stored at 4° C. until use. […]
Sections of muscle samples were taken from the same areas in 6-7 animals from each group. Capillaries were counted under a microscope in a total 12 random fields from different sections. Density was expressed as the mean number of capillaries per field of view. […]

hind limb ischemia [2] = experiment: Semi-quantitative assessment of limb function in mouse hind limb ischemia model; assay type: in vivo, Balb/c mice
Description: A stable hind limb ischemia model has been described previously and is generally characterized by uniform ischemic damage useful for examining the effect of various therapies (Goto, et al. Tokai J Exp Clin Med, 31(3):128 2006; Kang Y, et al. PLoS One. 2009; 4(1):e4275)). The hind limb ischemia model in mice used in this example involves two ligations of the proximal end of the femoral artery and its dissection between the two ligatures. The surgery causes obstruction of the blood flow and subsequently leads to severe ischemic damage (Goto, et al.; Kang, et al.). In this experiment, healthy adult female Balb/c mice were used. Hind limb ischemia was induced in mice using protocols previously described. Briefly, Balb/c female mice were maintained on a standard diet with water available ad libitum. Mice were anesthetized and an incision was made in the skin in the inguinal area. The femoral artery was ligated twice with 6-0 silk thread and transected between the ligatures after this the wound was closed with 4-0 silk thread and the mouse was allowed to recover.
An Angiotensin (1-7) polypeptide composition (TXA127) and vehicle control (DPBS) were supplied as ready to use solutions and were stored at 4° C. until use. TXA127 was injected subcutaneously (500 μg/kg) daily starting on day 1, 24 hours after inducing ischemia, until the end of the study. […]
Semi-quantitative assessment of impaired use of the ischemic limb was performed once a week post-surgery using the scale shown in Table 6 (Stabile et al, Circulation 108(2):205 2003). […]
as §1
Semi-quantitative assessment of impaired use of the ischemic limb was performed once a week post-surgery using the scale shown in Table 6 above. […]
An Angiotensin (1-7) polypeptide composition (PanCyte, cyclized Asp^1-Arg^2-Val^3-Ser^4-Ile^5-His^6-Cys (SEQ ID NO:22)) and vehicle control (DPBS) were supplied as ready to use solutions and were stored at 4° C. until use. […]

[3] = system: Transient middle cerebral artery occlusion (tMCAO); experiment: Stepping test (forelimb akinesia) after tMCAO stroke; assay type: in vivo, rats; settings: all experimental conditions (Table 22); by Day 28 post-surgery
Description: For the purposes of this example, Transient middle cerebral artery occlusion (tMCAO) procedure Day is defined as “Day 1” in this study. On the day of surgery anesthesia were induced with 4% isoflurane in a mixture of 70% N2O and 30% O2 and maintained with 1.5-2% isoflurane.
The tMCAO procedures were performed according to the method described R. Schmid-Elsaesser et al. Briefly, the right CCA (Common Carotid Artery) was exposed through a midline neck incision and carefully dissected free from surrounding nerves and fascia—from its bifurcation to the base of the skull. The occipital artery branches of the ECA (External Carotid Artery) were then isolated, and these branches were dissected and coagulated. The ECA was dissected further distally and coagulated along with the terminal lingual and maxillary artery branches, which was then divided. The ICA (Internal Carotid Artery) was isolated and carefully separated from the adjacent vagus nerve, and the pterygopalatine artery was ligated close to its origin with a 5-0 nylon suture (SMI, Belgium). Next, a 4-0 silk suture was tied loosely around the mobilized ECA stump, and a 4 cm length of 4-0 monofilament nylon suture (the tip of the suture was blunted by using a flame, and the suture was coated with polylysine, prior to insertion) was inserted through the proximal ECA into the ICA and thence into the circle of Willis, effectively occluding the MCA. The surgical wound was closed and the animals were returned to their cages to recover from anesthesia. […]
Animals were tested for forelimb akinesia in a stepping test (ST). The animal was held with its hind limbs fixed with one hand and the forelimb not to be monitored with the other, while the unrestrained fore-paw touches the table. The number of adjusting steps are counted while the animal is moved sideways along the table surface (85 cm in approximately five seconds), in the forehand & backhand direction for both forelimbs. […]

cyclized Asp^1-Arg^2-Val^3-Ser^4-Ile^5-His^6-Cys (SEQ ID NO:22) (DRVSIHC; bridge 4-7; not fully specified; printed as Asp1-Arg2-Val3-Ser4-Ile5-His6-Cys7) [PanCyte, cyclic angiotensin peptide]
capillary density (number of capillaries per field) vs control (hind limb ischemia [1]; 50 μg/kg SC daily): significantly increased the number of capillaries
capillary density (number of capillaries per field) vs control (hind limb ischemia [1]; 500 μg/kg SC daily): significantly increased the number of capillaries
limb function vs control (hind limb ischemia [2]; Example 2, 500 μg/kg SC daily (2F), day 28): improvement in limb function
limb function vs control (hind limb ischemia [2]; Example 3, 1 μg/kg SC daily (2F), days 14 and 21): improvement in limb function
limb function vs control (hind limb ischemia [2]; Example 3, 50 μg/kg continuous infusion by Alzet pump (6F), days 14 and 21): improvement in limb function
stepping test performance vs vehicle [3]: significantly improved the performance
